How the values were obtained:
HepG2 = test: cells; settings: Homo sapiens, HepG2, 48 h
Description: Antitumor activity against human HepG2 cells assessed as inhibition of cell viability incubated for 48 hrs by MTT assay

HCT-116 = test: cells; settings: Homo sapiens, HCT-116, 48 h
Description: Antitumor activity against human HCT-116 cells assessed as inhibition of cell viability incubated for 48 hrs by MTT assay

MCF7 = test: cells; settings: Homo sapiens, MCF7, 48 h
Description: Antitumor activity against human MCF7 cells assessed as inhibition of cell viability incubated for 48 hrs by MTT assay

HEp-2 = test: cells; settings: Homo sapiens, HEp-2, 48 h
Description: Antitumor activity against human HEp-2 cells assessed as inhibition of cell viability incubated for 48 hrs by MTT assay

HeLa = test: cells; settings: Homo sapiens, 48 h
Description: Antitumor activity against human HeLa cells assessed as inhibition of cell viability incubated for 48 hrs by MTT assay

[1] = Cytotoxicity against human WI-38 cells incubated for 48 hrs by MTT assay; assay type: toxicity, cell-based
[2] = Cytotoxicity against human WISH cells incubated for 48 hrs by MTT assay; assay type: toxicity, cell-based
WI-38 = test: Cytotoxicity against human WI-38 cells up to 50 uM incubated for 48 hrs by MTT assay; assay type: toxicity, cell-based; settings: wi-38, 48 h
WISH = test: Cytotoxicity against human WISH cells at up to 50 uM incubated for 48 hrs by MTT assay; assay type: toxicity, cell-based

| SMILES | IC50 (HepG2) | IC50 (HCT-116) | IC50 (MCF7) | IC50 (HEp-2) | IC50 (HeLa) | IC50 at 48 h [1] | IC50 at 48 h [2] | Activity (WI-38) | Activity (WISH) |
| --- | --- | --- | --- | --- | --- | --- | --- | --- | --- |
| N#Cc1sc(Nc2ccccc2)nc1N1C(=N)SCC1=O | 35.3 µM | 44.1 µM | 22.5 µM | 69.5 µM | 31.4 µM |  |  |  |  |
| N#Cc1sc(Nc2ccccc2)nc1NC(=O)CNNC(=O)c1ccc([N+](=O)[O-])cc1 | 57.3 µM | 55.2 µM | 43.2 µM | 80.4 µM | 49.8 µM |  |  |  |  |
| Cc1ccc(C(=O)CNNCC(=O)Nc2nc(Nc3ccccc3)sc2C#N)cc1 | 96.2 µM | 81.6 µM | 84.1 µM | > 100 µM | > 100 µM |  |  |  |  |
| N#Cc1sc(Nc2ccccc2)nc1N1CSCC1=O | 91.5 µM | 86.5 µM | 72.8 µM | > 100 µM | 94.3 µM |  |  |  |  |
| N#Cc1sc(Nc2ccccc2)nc1NC(=O)CN1CCN(Cc2ccccc2)CC1 | 61.5 µM | 56.9 µM | 45.3 µM | 82.5 µM | 53.2 µM |  |  |  |  |
| N#Cc1sc(Nc2ccccc2)nc1Nc1cnc(N)s1 | 18.5 µM | 19.7 µM | 9.67 µM | 35.2 µM | 14 µM | > 100 µM | 82.7 µM | Non-toxic | Non-toxic |
| N#Cc1sc(Nc2ccccc2)nc1NC(=O)CN1CCN(c2ccccc2)CC1 | 42.4 µM | 51.7 µM | 19.1 µM | 73.5 µM | 38.5 µM |  |  |  |  |
| N#Cc1sc(Nc2ccccc2)nc1NC(=O)CNNCC(=O)c1ccc(Br)cc1 | 46.1 µM | 34.9 µM | 35.6 µM | 49.1 µM | 43.4 µM |  |  |  |  |
| N#Cc1sc(Nc2ccccc2)nc1Nc1cnc(N)o1 | 20.1 µM | 25.8 µM | 14.8 µM | 39.7 µM | 16.4 µM | 27.5 µM | 24 µM | Non-toxic | Non-toxic |
| N#Cc1sc(Nc2ccccc2)nc1NC(=O)CNNCc1ccccc1 | 28.3 µM | 41.8 µM | 9.1 µM | 68.4 µM | 21.4 µM | 75.6 µM | 47.4 µM | Non-toxic | Non-toxic |
| N#Cc1sc(Nc2ccccc2)nc1NC(=O)CN1CCN(c2cccc(Cl)c2)CC1 | 76 µM | 60.4 µM | 59.1 µM | 87.9 µM | 72.1 µM |  |  |  |  |
